Measured values reported in the supplement of paper PMC11061612.

Assays:
AZD5991 = compound: Cc1c2c(nn1C)CSCc1cc(n(C)n1)CSc1cc(c3ccccc3c1)OCCCc1c(C(=O)O)n(C)c3c-2c(Cl)ccc13 [AZD5991]; conditions: max 1 µM
Summary of the method: (§1)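 After 24 hours at 37°C and 5% CO2 in 1536-well plates holding 7.5 μl of DMEM/F12 or RPMI with 10% FBS, cancer cell lines were dosed for 72 hours, with final DMSO typically 0.2%. Viability came from CellTiter-Glo 2.0 luminescence, scaled between the means of blank wells and DMSO wells. A non-linear mixed effects model fitted a two-parameter logistic curve to each dose response to give the single-agent IC50.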

Alisertib = compound: COc1cc(Nc2ncc3c(n2)-c2ccc(Cl)cc2C(c2c(F)cccc2OC)=NC3)ccc1C(=O)O [Alisertib]; conditions: max 10 µM
Summary of the method: as §1

Taselisib = compound: Cc1nc(-c2cn3c(n2)-c2ccc(-c4cnn(C(C)(C)C(N)=O)c4)cc2OCC3)n(C(C)C)n1 [Taselisib]; conditions: max 10 µM
Summary of the method: as §1

AZD1390 = compound: CC(C)n1c(=O)n(C)c2cnc3cc(F)c(-c4ccc(OCCCN5CCCCC5)nc4)cc3c21 [AZD1390]; conditions: max 0.3 µM
Summary of the method: as §1

Prexasertib = compound: COc1cccc(OCCCN)c1-c1cc(Nc2cnc(C#N)cn2)n[nH]1 [Prexasertib]; conditions: max 1 µM
Summary of the method: as §1

AZD8186 = compound: C[C@@H](Nc1cc(F)cc(F)c1)c1cc(C(=O)N(C)C)cc2c(=O)cc(N3CCOCC3)oc12 [AZD8186]; conditions: max 10 µM
Summary of the method: as §1

Carboplatin = compound: C1CC(C1)(C(=O)[O-])C(=O)[O-].N.N.[Pt+2] [Carboplatin]; conditions: max 10 µM
Summary of the method: as §1

Venetoclax = compound: CC1(C)CCC(CN2CCN(c3ccc(C(=O)NS(=O)(=O)c4ccc(NCC5CCOCC5)c([N+](=O)[O-])c4)c(Oc4cnc5[nH]ccc5c4)c3)CC2)=C(c2ccc(Cl)cc2)C1 [Venetoclax]; conditions: max 1 µM
Summary of the method: as §1

Trametinib = compound: CC(=O)Nc1cccc(-n2c(=O)n(C3CC3)c(=O)c3c(Nc4ccc(I)cc4F)n(C)c(=O)c(C)c32)c1 [Trametinib]; conditions: max 1 µM
Summary of the method: as §1

AZD7648 = compound: Cc1cc2ncnn2cc1Nc1ncc2c(n1)n(C1CCOCC1)c(=O)n2C [AZD7648]; conditions: max 10 µM
Summary of the method: as §1

5-Fluorouracil = compound: O=c1[nH]cc(F)c(=O)[nH]1 [5-Fluorouracil]; conditions: max 20 µM
Summary of the method: as §1

[1] = compound: O=C(Nc1ccc2[nH]nc(-c3ccncc3)c2c1)[C@@H]1CCN(CC(=O)N2CCN(c3ccc(-c4ncccn4)cc3)CC2)C1; conditions: max 5 µM
Summary of the method: as §1

Gefitinib = compound: COc1cc2ncnc(Nc3ccc(F)c(Cl)c3)c2cc1OCCCN1CCOCC1 [Gefitinib]; conditions: max 10 µM
Summary of the method: as §1

Etoposide = compound: COc1cc([C@@H]2c3cc4c(cc3[C@@H](O[C@@H]3O[C@@H]5CO[C@@H](C)O[C@H]5[C@H](O)[C@H]3O)[C@H]3COC(=O)[C@H]23)OCO4)cc(OC)c1O [Etoposide]; conditions: max 10 µM
Summary of the method: as §1

MK-2206 = compound: NC1(c2ccc(-c3nc4ccn5c(=O)[nH]nc5c4cc3-c3ccccc3)cc2)CCC1 [MK-2206]; conditions: max 10 µM
Summary of the method: as §1

Crizotinib = compound: C[C@@H](Oc1cc(-c2cnn(C3CCNCC3)c2)cnc1N)c1c(Cl)ccc(F)c1Cl [Crizotinib]; conditions: max 10 µM
Summary of the method: as §1

AZD1775 = compound: C=CCn1c(=O)c2cnc(Nc3ccc(N4CCN(C)CC4)cc3)nc2n1-c1cccc(C(C)(C)O)n1 [AZD1775]; conditions: max 3 µM
Summary of the method: as §1

Savolitinib = compound: C[C@@H](c1ccc2nccn2c1)n1nnc2ncc(-c3cnn(C)c3)nc21 [Savolitinib]; conditions: max 1 µM
Summary of the method: as §1

AZD5153 = compound: COc1nnc2ccc(N3CCC(c4ccc(OCCN5CCN(C)C(=O)[C@H]5C)cc4)CC3)nn12 [AZD5153]; conditions: max 1 µM
Summary of the method: as §1

Selumetinib = compound: Cn1cnc2c(F)c(Nc3ccc(Br)cc3Cl)c(C(=O)NOCCO)cc21 [Selumetinib]; conditions: max 10 µM
Summary of the method: as §1

Olaparib = compound: O=C(c1cc(Cc2n[nH]c(=O)c3ccccc23)ccc1F)N1CCN(C(=O)C2CC2)CC1 [Olaparib]; conditions: max 10 µM
Summary of the method: as §1

AZD4320 = compound: CN(CC[C@H](CSC1=CC=CC=C1)NC2=C(C=C(C=C2)S(=O)(=O)NC(=O)C3=CC=C(C=C3)N4CCC(CC4)[C@H](C5=CC=CC=C5C6=CC=C(C=C6)Cl)O)S(=O)(=O)C(F)(F)F)CCO [AZD4320]; conditions: max 1 µM
Summary of the method: as §1

Gemcitabine = compound: Nc1ccn([C@@H]2O[C@H](CO)[C@@H](O)C2(F)F)c(=O)n1 [Gemcitabine]; conditions: max 0.3 µM
Summary of the method: as §1

AZD6738 = compound: C[C@@H]1COCCN1C2=NC(=NC(=C2)C3(CC3)[S@](=N)(=O)C)C4=C5C=CNC5=NC=C4 [AZD6738]; conditions: max 10 µM
Summary of the method: as §1

AZD5363 = compound: C1CN(CCC1(C(=O)N[C@@H](CCO)C2=CC=C(C=C2)Cl)N)C3=NC=NC4=C3C=CN4 [AZD5363]; conditions: max 10 µM
Summary of the method: as §1

Doxorubicin = compound: COc1cccc2c1C(=O)c1c(O)c3c(c(O)c1C2=O)C[C@@](O)(C(=O)CO)C[C@@H]3O[C@H]1C[C@H](N)[C@H](O)[C@H](C)O1 [Doxorubicin]; conditions: max 1 µM
Summary of the method: as §1

SRA737 = compound: N#Cc1cnc(Nc2cc(NC[C@H]3CNCCO3)c(C(F)(F)F)cn2)cn1 [SRA737]; conditions: max 10 µM
Summary of the method: as §1

Paclitaxel = compound: CC(=O)O[C@H]1C(=O)[C@@]2(C)[C@H]([C@H](OC(=O)c3ccccc3)[C@]3(O)C[C@H](OC(=O)[C@H](O)[C@@H](NC(=O)c4ccccc4)c4ccccc4)C(C)=C1C3(C)C)[C@]1(OC(C)=O)CO[C@@H]1C[C@@H]2O [Paclitaxel]; conditions: max 3 µM
Summary of the method: as §1

Lapatinib = compound: CS(=O)(=O)CCNCc1ccc(-c2ccc3ncnc(Nc4ccc(OCc5cccc(F)c5)c(Cl)c4)c3c2)o1 [Lapatinib]; conditions: max 10 µM
Summary of the method: as §1

AZD2811 = compound: CCN(CCO)CCCOc1ccc2c(Nc3cc(CC(=O)Nc4cccc(F)c4)[nH]n3)ncnc2c1 [AZD2811]; conditions: max 1 µM
Summary of the method: as §1

SN-38 = compound: CCc1c2c(nc3ccc(O)cc13)-c1cc3c(c(=O)n1C2)COC(=O)[C@]3(O)CC [SN-38]; conditions: max 0.3 µM
Summary of the method: as §1

AZD0156 = compound: CN(C)CCCOc1ccc(-c2ccc3ncc4c(c3c2)n(C2CCOCC2)c(=O)n4C)cn1 [AZD0156]; conditions: max 3 µM
Summary of the method: as §1

SG3199 = compound: CC1=CN2[C@@H](C1)C=NC3=CC(=C(C=C3C2=O)OC)OCCCCCOC4=C(C=C5C(=C4)N=C[C@@H]6CC(=CN6C5=O)C)OC [SG3199]; conditions: max 0.001 µM
Summary of the method: as §1

Dasatinib = compound: CC1=C(C(=CC=C1)Cl)NC(=O)C2=CN=C(S2)NC3=CC(=NC(=N3)C)N4CCN(CC4)CCO [Dasatinib]; conditions: max 2 µM
Summary of the method: as §1

Palbociclib = compound: CC(=O)c1c(C)c2cnc(Nc3ccc(N4CCNCC4)cn3)nc2n(C2CCCC2)c1=O [Palbociclib]; conditions: max 10 µM
Summary of the method: as §1

| Cell Line | IC50, cell viability 72 h (AZD5991) | IC50, cell viability 72 h (Alisertib) | IC50, cell viability 72 h (Taselisib) | IC50, cell viability 72 h (AZD1390) | IC50, cell viability 72 h (Prexasertib) | IC50, cell viability 72 h (AZD8186) | IC50, cell viability 72 h (Carboplatin) | IC50, cell viability 72 h (Venetoclax) | IC50, cell viability 72 h (Trametinib) | IC50, cell viability 72 h (AZD7648) | IC50, cell viability 72 h (5-Fluorouracil) | IC50, cell viability 72 h [1] | IC50, cell viability 72 h (Gefitinib) | IC50, cell viability 72 h (Etoposide) | IC50, cell viability 72 h (MK-2206) | IC50, cell viability 72 h (Crizotinib) | IC50, cell viability 72 h (AZD1775) | IC50, cell viability 72 h (Savolitinib) | IC50, cell viability 72 h (AZD5153) | IC50, cell viability 72 h (Selumetinib) | IC50, cell viability 72 h (Olaparib) | IC50, cell viability 72 h (AZD4320) | IC50, cell viability 72 h (Gemcitabine) | IC50, cell viability 72 h (AZD6738) | IC50, cell viability 72 h (AZD5363) | IC50, cell viability 72 h (Doxorubicin) | IC50, cell viability 72 h (SRA737) | IC50, cell viability 72 h (Paclitaxel) | IC50, cell viability 72 h (Lapatinib) | IC50, cell viability 72 h (AZD2811) | IC50, cell viability 72 h (SN-38) | IC50, cell viability 72 h (AZD0156) | IC50, cell viability 72 h (SG3199) | IC50, cell viability 72 h (Dasatinib) | IC50, cell viability 72 h (Palbociclib) |
| --- | --- | --- | --- | --- | --- | --- | --- | --- | --- | --- | --- | --- | --- | --- | --- | --- | --- | --- | --- | --- | --- | --- | --- | --- | --- | --- | --- | --- | --- | --- | --- | --- | --- | --- | --- |
| K5 (Thyroid Gland Carcinoma) | > 1000 nM | 638 nM | 558 nM | > 300 nM | 251 nM | > 10000 nM | > 10000 nM | > 1000 nM | 14.3 nM | > 10000 nM | > 20000 nM | 3880 nM | > 10000 nM | > 10000 nM | > 10000 nM | 9780 nM | > 3000 nM | > 1000 nM | 243 nM | 2190 nM | > 10000 nM | > 1000 nM | > 300 nM | > 10000 nM | > 10000 nM | 266 nM | > 10000 nM | 56.1 nM | > 10000 nM | > 1000 nM | 150 nM | > 3000 nM | > 1 nM | 604 nM | > 10000 nM |
| LU-139 (Small Cell Lung Carcinoma) | > 1000 nM | 5740 nM | > 10000 nM | > 300 nM | 413 nM | > 10000 nM | > 10000 nM | > 1000 nM | > 1000 nM | > 10000 nM | > 20000 nM | > 5000 nM | > 10000 nM | 2430 nM | > 10000 nM | 9530 nM | 1210 nM | > 1000 nM | 103 nM | > 10000 nM | > 10000 nM | 47.4 nM | 29.5 nM | > 10000 nM | > 10000 nM | 513 nM | > 10000 nM | 124 nM | > 10000 nM | > 1000 nM | 39.2 nM | > 3000 nM | > 1 nM | > 2000 nM | > 10000 nM |
| LoVo (Colorectal Carcinoma) | > 1000 nM | > 10000 nM | 5550 nM | > 300 nM | 24.4 nM | 952 nM | > 10000 nM | > 1000 nM | 156 nM | > 10000 nM | > 20000 nM | 1680 nM | > 10000 nM | > 10000 nM | 5230 nM | > 10000 nM | 192 nM | > 1000 nM | > 1000 nM | 5810 nM | > 10000 nM | > 1000 nM | 138 nM | 1170 nM | 7270 nM | > 1000 nM | 8630 nM | 70.3 nM | > 10000 nM | > 1000 nM | 108 nM | > 3000 nM | > 1 nM | > 2000 nM | 7650 nM |
| Mewo (Melanoma) | > 1000 nM | > 10000 nM | > 10000 nM | > 300 nM | 413 nM | > 10000 nM | > 10000 nM | > 1000 nM | 569 nM | > 10000 nM | > 20000 nM | 3570 nM | > 10000 nM | > 10000 nM | > 10000 nM | > 10000 nM | 1420 nM | > 1000 nM | > 1000 nM | > 10000 nM | > 10000 nM | > 1000 nM | > 300 nM | > 10000 nM | > 10000 nM | > 1000 nM | > 10000 nM | 653 nM | > 10000 nM | > 1000 nM | > 300 nM | > 3000 nM | > 1 nM | > 2000 nM | > 10000 nM |
| NB14 (Neuroblastoma) | 566 nM | 25.1 nM | > 10000 nM | > 300 nM | 4.03 nM | > 10000 nM | > 10000 nM | 726 nM | 570 nM | > 10000 nM | > 20000 nM | > 5000 nM | > 10000 nM | 849 nM | 9150 nM | 1280 nM | 293 nM | > 1000 nM | 451 nM | > 10000 nM | > 10000 nM | 126 nM | 128 nM | 1350 nM | > 10000 nM | 174 nM | 677 nM | < 3 nM | > 10000 nM | 24.9 nM | 5.04 nM | > 3000 nM | > 1 nM | > 2000 nM | 2360 nM |
